# In paper PMC12796447, “Cran1, member of a new class of OLD family ATPases, functions in cell cycle progression in an archaeon” (EMBO Reports, 2025):
# Biological target: T1, Cran1 (Cell cycle-related ATPase and nickase 1) (Saccharolobus islandicus, UniProt F0NG35, E246A)
# T1 construct: gene SiRe_0086; full-length, C-terminal His-tag; expressed in Sa. islandicus (ATPase assay) or E. coli BL21(DE3)-RIL; monomer, 55 kDa by gel filtration
# Experiment: malachite green phosphate release assay
# Type: biochemical
# Conditions: 1 mM ATP, 0.2 uM protein, 5 mM MgCl2, 25 mM Tris-HCl pH 7.4, 100 mM NaCl; 70 C
# T1 sequence (F0NG35 entry or part of it E246A): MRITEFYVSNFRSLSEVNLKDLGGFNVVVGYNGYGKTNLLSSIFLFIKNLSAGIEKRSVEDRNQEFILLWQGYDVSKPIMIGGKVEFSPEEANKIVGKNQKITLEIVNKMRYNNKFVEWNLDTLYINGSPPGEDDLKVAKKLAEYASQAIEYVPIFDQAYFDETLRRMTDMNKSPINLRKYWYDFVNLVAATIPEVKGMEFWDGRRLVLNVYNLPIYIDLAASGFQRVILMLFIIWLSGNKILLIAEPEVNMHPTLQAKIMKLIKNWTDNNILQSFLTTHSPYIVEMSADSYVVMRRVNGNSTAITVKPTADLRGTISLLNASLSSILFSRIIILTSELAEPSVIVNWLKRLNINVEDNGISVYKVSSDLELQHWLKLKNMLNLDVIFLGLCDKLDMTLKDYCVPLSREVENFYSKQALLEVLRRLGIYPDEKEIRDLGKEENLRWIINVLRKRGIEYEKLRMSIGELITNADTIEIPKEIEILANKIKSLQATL
smiles,measurement,value
Nc1ncnc2c1ncn2[C@@H]1O[C@H](COP(=O)(O)OP(=O)(O)OP(=O)(O)O)[C@@H](O)[C@H]1O [ATP],malachite green phosphate release assay,substitution of either of the two residues with alanine had no effect both in vitro
